Reference: US9717748B2, “Compositions and methods for treating an infection” (CMPD LICENSING, LLC, priority 2015, dated 2017)

Columns and labels:
Bacteroides fragilis = assay: Expected efficacy of antibiotic agents; conditions: Gram: anaer
Chlamydia pneumoniae = assay: Expected efficacy of antibiotic agents; conditions: Gram: n/a
Campylobacter jejuni = assay: Expected efficacy of antibiotic agents; conditions: Gram: neg
Citrobacter freundii = assay: Expected efficacy of antibiotic agents; conditions: Gram: neg
Francisella tularensis = conditions: Gram: neg
[1] = system: Haemophilus parainfluenzae; assay: Expected efficacy of antibiotic agents; conditions: Gram: neg
Klebsiella pneumoniae = assay: Expected efficacy of antibiotic agents; conditions: Gram: neg
Legionella pneumophila = conditions: Gram: neg
Moraxella catarrhalis = assay: Expected efficacy of antibiotic agents; conditions: Gram: neg
Neisseria gonorrhoeae = assay: Expected efficacy of antibiotic agents; conditions: Gram: neg
Proteus mirabilis = assay: Expected efficacy of antibiotic agents; conditions: Gram: neg
Providencia rettgeri = assay: Expected efficacy of antibiotic agents; conditions: Gram: neg
Providencia stuartii = assay: Expected efficacy of antibiotic agents; conditions: Gram: neg
Pseudomonas aeruginosa = assay: Expected efficacy of antibiotic agents; conditions: Gram: neg
Salmonella typhi = assay: Expected efficacy of antibiotic agents; conditions: Gram: neg
Shigella dysenteriae = assay: Expected efficacy of antibiotic agents; conditions: Gram: neg
Shigella flexneri = assay: Expected efficacy of antibiotic agents; conditions: Gram: neg
Shigella sonnei = assay: Expected efficacy of antibiotic agents; conditions: Gram: neg
Yersinia pestis = conditions: Gram: neg
Corynebacterium jeikeium = assay: Expected efficacy of antibiotic agents; conditions: Gram: pos
Enterococcus faecium = assay: Expected efficacy of antibiotic agents; conditions: Gram: pos
[2] = system: Methicillin resistant staphaureus (MRSA); assay: Expected efficacy of antibiotic agents; conditions: Gram: pos
[3] = system: Staphylococcus aureus (MSSA); assay: Expected efficacy of antibiotic agents; conditions: Gram: pos
[4] = system: Staphylococcus epidermidis; assay: Expected efficacy of antibiotic agents; conditions: Gram: pos
Chlamydia psittaci = conditions: Gram: n/a
Chlamydia trachomatis = assay: Expected efficacy of antibiotic agents; conditions: Gram: n/a
Acinetobacter baumannii = assay: Expected efficacy of antibiotic agents; conditions: Gram: neg
Acinetobacter lwoffii = assay: Expected efficacy of antibiotic agents; conditions: Gram: neg
Brucella species = conditions: Gram: neg
Citrobacter diversus = assay: Expected efficacy of antibiotic agents; conditions: Gram: neg
Haemophilus ducreyi = assay: Expected efficacy of antibiotic agents; conditions: Gram: neg
[5] = system: Klebsiella (Calymmato-bacterium) granulomatis; assay: Expected efficacy of antibiotic agents; conditions: Gram: neg
Morganella morganii = assay: Expected efficacy of antibiotic agents; conditions: Gram: neg
Proteus vulgaris = assay: Expected efficacy of antibiotic agents; conditions: Gram: neg
Serratia marcescens = assay: Expected efficacy of antibiotic agents; conditions: Gram: neg
Enterococcus faecalis = assay: Expected efficacy of antibiotic agents; conditions: Gram: pos
Aspergillus flavus = assay: Expected efficacy of antifungal agents
Aspergillus fumigatus = assay: Expected efficacy of antifungal agents
Cryptococcus neoformans = assay: Expected efficacy of antifungal agents

Row | Structure (SMILES) | Expected efficacy against Chlamydia pneumoniae (Chlamydia pneumoniae) | Expected efficacy against Campylobacter jejuni (Campylobacter jejuni) | Expected efficacy against Citrobacter freundii (Citrobacter freundii) | Expected efficacy against Francisella tularensis (Francisella tularensis) | Expected efficacy against Haemophilus parainfluenzae [1] | Expected efficacy against Legionella pneumophila (Legionella pneumophila) | Expected efficacy against Moraxella catarrhalis (Moraxella catarrhalis) | Expected efficacy against Proteus mirabilis (Proteus mirabilis) | Expected efficacy against Providencia rettgeri (Providencia rettgeri) | Expected efficacy against Providencia stuartii (Providencia stuartii) | Expected efficacy against Pseudomonas aeruginosa (Pseudomonas aeruginosa) | Expected efficacy against Yersinia pestis (Yersinia pestis) | Expected efficacy against Enterococcus faecium (Enterococcus faecium) | Expected efficacy against Staphylococcus epidermidis [4] | further results
1 | O=C(O)c1cn(C2CC2)c2cc(N3CCNCC3)c(F)cc2c1=O [Ciprofloxacin] | yes | yes | yes | yes | yes | yes | yes | yes | yes | yes | yes | yes | no | yes | Expected efficacy against Bacteroides fragilis (Bacteroides fragilis): no; Expected efficacy against Klebsiella pneumoniae (Klebsiella pneumoniae): yes; Expected efficacy against Neisseria gonorrhoeae (Neisseria gonorrhoeae): yes; Expected efficacy against Salmonella typhi (Salmonella typhi): yes; Expected efficacy against Shigella dysenteriae (Shigella dysenteriae): yes; Expected efficacy against Shigella flexneri (Shigella flexneri): yes; Expected efficacy against Shigella sonnei (Shigella sonnei): yes; Expected efficacy against Corynebacterium jeikeium (Corynebacterium jeikeium): no; Expected efficacy against Methicillin resistant staphaureus (MRSA) [2]: no; Expected efficacy against Staphylococcus aureus (MSSA) [3]: no
2 | C[C@H]1c2cccc(O)c2C(=O)C2=C(O)[C@]3(O)C(=O)C(C(N)=O)=C(O)[C@@H](N(C)C)[C@@H]3[C@@H](O)[C@@H]21 [Doxycyline] | yes | yes | no | yes | yes | yes | yes | no | no | no | no | yes | no | yes | Expected efficacy against Chlamydia psittaci (Chlamydia psittaci): yes; Expected efficacy against Chlamydia trachomatis (Chlamydia trachomatis): yes; Expected efficacy against Acinetobacter baumannii (Acinetobacter baumannii): no; Expected efficacy against Acinetobacter lwoffii (Acinetobacter lwoffii): no; Expected efficacy against Brucella species (Brucella species): yes; Expected efficacy against Citrobacter diversus (Citrobacter diversus): no; Expected efficacy against Haemophilus ducreyi (Haemophilus ducreyi): yes; Expected efficacy against Klebsiella (Calymmato-bacterium) granulomatis [5]: yes; Expected efficacy against Morganella morganii (Morganella morganii): no; Expected efficacy against Proteus vulgaris (Proteus vulgaris): no; Expected efficacy against Serratia marcescens (Serratia marcescens): no; Expected efficacy against Enterococcus faecalis (Enterococcus faecalis): no
3 | OC(Cn1cncn1)(Cn1cncn1)c1ccc(F)cc1F [Fluconazole] | – | – | – | – | – | – | – | – | – | – | – | – | – | – | Expected efficacy against Aspergillus flavus (Aspergillus flavus): yes; Expected efficacy against Aspergillus fumigatus (Aspergillus fumigatus): yes; Expected efficacy against Coccidioides immitis (Coccidioides immitis): yes; Expected efficacy against Cryptococcus neoformans (Cryptococcus neoformans): yes
